Experiments:
Assay in all cases: relative viability (nuclei count vs DMSO), 5 days (fraction); higher = more cells survive
[1] = compound: COc1cc2ncn(-c3cc(OCc4ccccc4C(F)(F)F)c(C(N)=O)s3)c2cc1OC + CS(=O)(=O)CCNCc1ccc(-c2ccc3ncnc(Nc4ccc(OCc5cccc(F)c5)c(Cl)c4)c3c2)o1 [Lapatinib] (partner 2 µM)
Method in brief: (§1)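 Lung cancer cell lines in 1536-well plates got either a single drug or a fixed anchor-drug dose together with five library-drug doses (not always all listed) in √10 steps, by pin tool, on the day after seeding. Nuclei were counted after 5 days, and relative viability is the treated-to-vehicle ratio of nuclei counts. Values are medians of duplicate plates.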

[2] = compound: COc1cc2ncn(-c3cc(OCc4ccccc4C(F)(F)F)c(C(N)=O)s3)c2cc1OC + CC(C)C[C@H](NC(=O)[C@H](Cc1ccccc1)NC(=O)c1cnccn1)B(O)O [Bortezomib] (partner 0.002 µM)
Method in brief: as §1

[3] = compound: COc1cc2ncn(-c3cc(OCc4ccccc4C(F)(F)F)c(C(N)=O)s3)c2cc1OC + NC(=O)Nc1cc(-c2cccc(F)c2)sc1C(=O)N[C@H]1CCCNC1 [AZD7762] (partner 0.2 µM)
Method in brief: as §1

[4] = compound: COc1cc2ncn(-c3cc(OCc4ccccc4C(F)(F)F)c(C(N)=O)s3)c2cc1OC + Nc1ncn([C@H]2C[C@H](O)[C@@H](CO)O2)c(=O)n1 [Decitabine] (partner 2 µM)
Method in brief: as §1

Row | Cell Line | relative viability ([1]; first compound 0.05 µM) | relative viability ([1]; first compound 0.1581 µM) | relative viability ([1]; first compound 0.5 µM) | relative viability ([1]; first compound 1.581 µM) | relative viability ([1]; first compound 5 µM) | relative viability ([2]; first compound 0.05 µM) | relative viability ([2]; first compound 0.1581 µM) | relative viability ([2]; first compound 0.5 µM) | relative viability ([2]; first compound 1.581 µM) | relative viability ([2]; first compound 5 µM) | relative viability ([3]; first compound 0.05 µM) | relative viability ([3]; first compound 0.1581 µM) | relative viability ([3]; first compound 0.5 µM) | relative viability ([3]; first compound 1.581 µM) | relative viability ([3]; first compound 5 µM) | relative viability ([4]; first compound 0.05 µM) | relative viability ([4]; first compound 0.1581 µM) | relative viability ([4]; first compound 0.5 µM) | relative viability ([4]; first compound 1.581 µM) | relative viability ([4]; first compound 5 µM)
1 | LXF-289 | 0.912 | 0.709 | 0.647 | 0.147 | 0.0707 | 0.84 | 0.781 | 0.649 | 0.0959 | 0.0616 | 1.1 | 1 | 0.983 | 0.134 | 0.0617 | 0.434 | 0.363 | 0.274 | 0.129 | 0.108
2 | NCI-H23 | 1.22 | 0.789 | 0.451 | 0.159 | 0.141 | 1.14 | 0.847 | 0.648 | 0.132 | 0.117 | 0.196 | 0.261 | 0.199 | 0.0923 | 0.0935 | 0.296 | 0.281 | 0.176 | 0.191 | 0.151
3 | NCI-H322M | 0.572 | 0.578 | 0.548 | 0.302 | 0.257 | 1.16 | 1.45 | 1.21 | 0.878 | 0.45 | 0.593 | 0.722 | 0.498 | 0.451 | 0.413 | 0.676 | 0.73 | 0.581 | 0.446 | 0.415
4 | NCI-H460 | 1.03 | 0.592 | 0.486 | 0.0094 | 0.0099 | 1.08 | 0.805 | 0.487 | 0.0103 | 0.0108 | 0.63 | 0.654 | 0.554 | 0.0553 | 0.0434 | 0.495 | 0.15 | 0.257 | 0.0216 | 0.0165
5 | NCI-H596 | 1.1 | 1.22 | 0.911 | 0.586 | 0.33 |  | 1.11 | 0.828 | 0.638 | 0.312 | 1.1 | 1.14 | 0.943 | 0.664 | 0.413 | 1.6 | 1.13 | 0.935 | 0.817 | 0.425
6 | NCI-H647 | 0.97 | 0.935 | 0.448 | 0.0772 | 0.0798 | 1.2 | 0.814 | 0.324 | 0.0759 | 0.0904 | 0.356 | 0.491 | 0.248 | 0.0314 | 0.026 | 0.381 | 0.275 | 0.168 | 0.131 | 0.107
7 | NCI-H650 | 0.903 | 1.2 | 0.531 | 0.171 | 0.247 | 0.89 | 0.78 | 0.512 | 0.163 | 0.214 | 1.21 | 1.01 | 0.92 | 0.561 | 0.581 | 0.329 | 0.309 | 0.261 | 0.175 | 0.236
8 | NCI-H727 | 0.803 | 0.694 | 0.541 | 0.338 | 0.296 | 1.05 | 0.835 | 0.583 | 0.317 | 0.381 | 0.712 | 0.495 | 0.504 | 0.527 | 0.487 | 1.03 | 0.927 | 0.825 | 0.616 | 0.568
